Experimental data published in patent publication US11389434B2, “Methods and pharmaceutical compositions for the treatment of mast cell diseases” (INSERM (INSTITUT NATIONAL DE LA SANTE ET DE LA RECHERCHE …, priority 2017, dated 2022).

How the values were obtained:
ROSA KIT WT = experiment: Kinetic cell proliferation assay, IncuCyte Live Cell analysis system; assay type: cell-based, human; conditions: increasing doses (10 to 50 μM), 144 hours
Experimental: (§1) The human MCL-derived cell line HMC-1 was kindly provided by Dr. Michel Arock, Paris, France. Two sub-clones were used, namely HMC-1.1 expressing KIT V560G, and HMC-1.2 expressing KIT V560G and KIT D816V.
(§2) Human primary mast cells, patient's leukemic mast cells and ROSA KIT-WT cell line were cultured in Iscove's modified Dulbecco's Medium (IMDM)-Glutamax® (Invitrogen) supplemented with the penicillin/streptomycin 100 U/ml (P/S) (Invitrogen), 1% of sodium pyruvate (Invitrogen), 1% of vitamins (Invitrogen), 1% of glutamine (Invitrogen), 2% of non-essential amino acids (Invitrogen), 1% of a commercial solution of insulin-transferrin-sodium selenite (Invitrogen), 0.3% of albumin bovine (BSA) in presence of human SCF at 100 ng/ml (Milteny biotech). “ROSA KIT D816V”, “ROSA KIT Delta 417-419 insY” mast cells and HMC-1 lines which have mutated KIT receptor (CD117) grow in the same media described above but in absence of hSCF.
(§3) Kinetic cell proliferation assays were performed using the IncuCyte® Live Cell analysis system with 10 000 cells/well in triplicate and during one week in presence or absence of chemicals compounds, Gant61, Vismodegib and, individually or in combination, to determine their effect on mast cell proliferation. Compounds were added the first day at different doses and the media was not changed over the 7 days. At the end of the week, mast cells death was investigated by flow cytometry using 7-AAD viability staining solution.

ROSA KIT D816V = experiment: as above; assay type: cell-based, human; conditions: increasing doses (10 to 50 μM), 144 hours
Experimental: as §1, §2, §3

mast cells = experiment: Mast cell death by flow cytometry, 7-AAD viability staining; assay type: cell-based, human
Experimental: as §1, §2, §3

ROSA D816V = experiment: Western blot of proteins associated with cell proliferation or apoptosis; assay type: cell-based, human; conditions: increasing doses
Experimental: as §1, §2
(§4) After an overnight starvation of 5 million cells from each kind of cells described above, cells were treated with different doses of chemical agonists (such as purmorfamine) or antagonists (such as Gant61) of HH pathway and for several time-laps. Cells were then collected to extract RNA or proteins to perform gene expression analysis by RT-qPCR or western blot analysis. […]

ROSA WT = experiment: as above; assay type: cell-based, human; conditions: increasing doses
Experimental: as §1, §2, §4

ROSA KIT K417 = experiment: Kinetic cell proliferation assay, IncuCyte Live Cell analysis system; assay type: cell-based, human; conditions: ROSA KIT K417, increasing doses (10 to 50 μM), 144 hours
leukemic MC = experiment: Leukemic mast cell death; assay type: cell-based, human; conditions: data not shown
Experimental: as §1, §2
as §3, with “At the end of the week, mast cells death was investigated by flow cytometry using 7-AAD viability staining solution.” left out

[1] = tested on: conventional PKC isoforms (α, β, and γ), Syk, FLK1, Akt, PKA, c-Kit, C-Fgr, c-Src, FLT3, PDFRβ, VEGFR1, and VEGFR2; conditions: several serine/threonine and tyrosine kinases; cited from earlier work
GLI1 protein = experiment: Western blot of GLI1 after stimulation with SMO agonist; assay type: cell-based; conditions: human MC lines (ROSA KIT WT, KIT D816V), purmorphamine 2 or 5 μM, 12 or 24 hours
Experimental: After an overnight starvation of 5 million cells from each kind of cells described above, cells were treated with different doses of chemical agonists (such as purmorfamine) or antagonists (such as Gant61) of HH pathway and for several time-laps. Cells were then collected to extract RNA or proteins to perform gene expression analysis by RT-qPCR or western blot analysis. Hedgehog genes Gli1-2-3, Smo, Patch receptors, SHH-IHH-DHH ligands and the tumor supressor Bcl2 gene were investigated. Hedgehog proteins (Gli1 and Gli3), proteins involved in apoptosis (Bcl2, caspase3, Bcl-xl) and in PI3K/AKT/mTOR pathway were investigated.

## CN(C)c1ccccc1CN1CCCN(Cc2ccccc2N(C)C)C1c1ccncc1 [GANT61]
ROSA KIT WT
  proliferation (percentage of confluence): inhibited
ROSA KIT D816V
  proliferation (percentage of confluence): inhibited
Mast cells; GANT61 5 μM
  mast cells death: 5%
Mast cells; GANT61 50 μM, data not shown
  mast cells death: more than 90%
ROSA D816V
  Expression levels of mTOR, p-AKT, AKT, MYC, Caspase3, BCL2, and BCLX-L proteins: decreased
ROSA WT
  Expression levels of mTOR, p-AKT, AKT, MYC, Caspase3, BCL2, and BCLX-L proteins: decreased
ROSA KIT K417
  proliferation (percentage of confluence): inhibited
Leukemic MC
  leukemic MC death: induced leukemic MC death

## CO[C@@H]1[C@H](N(C)C(=O)c2ccccc2)C[C@H]2O[C@]1(C)n1c3ccccc3c3c4c(c5c6ccccc6n2c5c31)C(=O)NC4 [PKC 412, N-[(9S,10R,11R,13R)-2,3,10,11,12,13-hexahydro-10-methoxy-9-methyl-1-oxo-9,13-epoxy-1H,9H-diindolo[1,2,3-gh:3′,2′,1′-lm]pyrrolo[3,4-j][1,7]benzodiazonin-11-yl]-N-methyl-benzamide]
[1]
  IC50: 80 to 500 nM

## c1ccc2c(Oc3nc(Nc4ccc(N5CCOCC5)cc4)c4ncn(C5CCCCC5)c4n3)cccc2c1 [purmorphamine]
GLI1 protein
  GLI1 expression: clearly increased

## CS(=O)(=O)c1ccc(C(=O)Nc2ccc(Cl)c(-c3ccccn3)c2)c(Cl)c1 [vismodegib]
ROSA KIT WT
  proliferation (percentage of confluence): prevented the proliferation
ROSA KIT D816V
  proliferation (percentage of confluence): prevented the proliferation
Mast cells; whatever the cell type, data not shown
  induction of cell death compared with GANT61: much less important
ROSA KIT K417
  proliferation (percentage of confluence): prevented the proliferation
